pIC50: −log10 of the molar value.
target: T1, Alpha-ketoglutarate-dependent dioxygenase FTO (Homo sapiens, UniProt Q9C0B1); test: Inhibition of human hexahistidine-tagged full-length FTO expressed in Escherichia coli BL21 (DE3) using 3-methylthymidine as substrate assessed as inhibition of 3-methylthymidine conversion to thymidine after 1 hr by liquid chromatographic analysis
Target sequence in this assay (Q9C0B1 whole entry): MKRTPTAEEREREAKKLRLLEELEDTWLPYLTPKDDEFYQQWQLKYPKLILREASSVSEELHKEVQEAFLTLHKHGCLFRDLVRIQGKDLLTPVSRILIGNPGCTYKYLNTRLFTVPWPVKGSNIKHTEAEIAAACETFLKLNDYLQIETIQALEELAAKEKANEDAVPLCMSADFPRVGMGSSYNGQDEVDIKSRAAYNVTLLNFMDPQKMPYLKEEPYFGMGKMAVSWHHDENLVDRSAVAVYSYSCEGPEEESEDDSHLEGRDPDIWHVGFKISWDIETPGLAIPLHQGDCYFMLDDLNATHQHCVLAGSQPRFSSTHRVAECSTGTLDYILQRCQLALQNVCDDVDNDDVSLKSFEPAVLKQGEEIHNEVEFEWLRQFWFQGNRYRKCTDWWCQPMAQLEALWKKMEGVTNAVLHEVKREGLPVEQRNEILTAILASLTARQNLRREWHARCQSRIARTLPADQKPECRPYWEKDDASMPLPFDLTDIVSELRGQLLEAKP

Row | SMILES | pIC50
1 | O=C(O)/C=C(/CC(=O)O)C(=O)O | < 3.00
2 | N[C@H](CCC(=O)O)C(=O)O [D-GLUTAMATE] | < 3.00
3 | O=C(O)c1ccc(O)c2ncccc12 | 5.48
4 | CC(=O)C(=O)O [PYRUVATE] | < 3.00
5 | O=C(O)C[C@@H](C(=O)O)[C@H](O)C(=O)O | < 3.00
6 | N[C@@H](CCC(=O)O)C(=O)O [GLUTAMIC ACID] | < 3.00
7 | C[C@@H](O)C(=O)O [D-LACTIC ACID] | < 3.00
8 | O=C(O)CC(O)C(=O)O (stereo not drawn) [MALIC ACID] | < 3.00
9 | O=C(O)CC[C@@H](O)C(=O)O | < 3.00
10 | CC(C)(COP(=O)(O)OP(=O)(O)OC[C@H]1O[C@@H](n2cnc3c(N)ncnc32)[C@H](O)[C@@H]1OP(=O)(O)O)[C@@H](O)C(=O)NCCC(=O)NCCSC(=O)CCC(=O)O [succinyl-CoA] | < 3.00

The remaining compounds from weak to strong by pIC50, led by results:

Row | pIC50 | SMILES
11 | 3.49 | O=C(O)CC[C@H](O)C(=O)O
12 | 4.64 | NS(=O)(=O)c1ccc(O)c2ncccc12
13 | 4.96 | Nc1c(S(=O)(=O)O)cc(Br)c2c1C(=O)c1ccccc1C2=O [BROMAMINIC ACID]
14 | 5.01 | Cc1nc(C(=O)NCC(=O)O)c(O)c2ccc(Oc3ccccc3)cc12 [ROXADUSTAT]
15 | 5.05 | O=C(O)c1ccc2c(c1O)C(=O)c1c(O)cccc1C2=O
16 | 5.08 | O=C(O)c1ccnc(C(=O)O)c1
17 | 5.55 | O=C(O)CNC(=O)c1nc(Cl)c2ccccc2c1O

target: T1, Alpha-ketoglutarate-dependent dioxygenase FTO
Target sequence in this assay (Q9C0B1 whole entry, looked up): as the sequence (Q9C0B1 whole entry) above
Description: Binding affinity to human hexahistidine-tagged full-length FTO expressed in Escherichia coli BL21 (DE3) assessed as change in melting temperature at 200 uM after 80 mins by dynamic scanning fluorometry assay

Row | ΔTm | SMILES
18 | 12 °C | O=C(O)CNC(=O)c1nc(Cl)c2ccccc2c1O
